Data: US10821117B2, “Estrogen therapy for brain gray matter atrophy and associated disability” (The Regents of the University of California, priority 2014, dated 2020)

Test system: relapsing remitting multiple sclerosis patients
Test: Multiple Sclerosis Functional Composite (MSFC): PASAT3, 9-Hole Peg Test, 25-foot Walk Time
Assay type: in vivo, human
Source text: Secondary efficacy end points included the proportion of subjects with a relapse over all 24 months, a change in PASAT cognitive testing, a sustained improvement in PASAT cognitive testing (as defined by an increase of at least 3 points sustained over at least 6 months), a change in EDSS scores from baseline, disability progression (as defined by an increase in EDSS of at least 1.0 point in subjects with a baseline score of 1.0 or higher, or by an increase of at least a 1.5 points in subjects with a baseline score of 0, each sustained for at least 6 months). Tertiary end points included gray matter atrophy on MRI.
Linear mixed effects model was carried out to compare the percent change in whole gray matter and cortical gray matter between treatment groups. For the exploratory endpoints of EDSS, PASAT, and brain volume measures, linear mixed effects model was used to compare treatment groups at 12 and 24 months. Linear mixed effects model was carried out to evaluate the association between PASAT change and percent brain volume change.
Another clinical disability measure with treatment effects was the timed 25-foot walk test. This test measures how many seconds it takes to walk 25 feet, with higher scores indicating worse disability. […] This beneficial effect of estriol treatment on 25-foot walking times is consistent with the beneficial effect of estriol treatment on EDSS scores since the latter is weighted toward being an indicator of ambulation.
There were no significant differences between groups in the Multiple Sclerosis Functional Composite (MSFC), which reflects a composite of scores including the Paced Auditory Serial Addition Test (PASAT) for cognition, the 9 hole peg test and the 25 foot walk test (Table 4). However, an interesting effect of combination treatment was observed on cognitive disability. A perfect PASAT score is 60, with scores lower than 55 serving as a continuous variable for disability. […] After 12 months of treatment, patients receiving Copaxone® plus estriol continued to have high PASAT scores to the end of study at month 24, while participants receiving placebo began to show […] PASAT scores by month 24. […] This represents repair of disability, not merely prevention of worsening. This beneficial effect on PASAT scores at 12 months in the Estriol plus GA group could not be attributed to practice effects of repeated testing since the comparison was with the Placebo plus GA group tested at identical time points.

[1] = first of two lines headed Month 24 (N = 70 / N = 60), positive value indicates worsening
[2] = positive value indicates improvement
[3] = positive value indicates worsening
[4] = second line headed Month 24 (N = 60 / N = 55), positive value indicates worsening

## glatiramer acetate [Placebo + GA]
FIG. 7B
  PASAT score change at 12 months, within group comparison: no change
By 12 months of treatment
  PASAT scores improvement compared with baseline: no significant improvement
[1]
  25-foot Walk Time, Change from baseline at Month 24, Mean ± SD: 0.0 ± 0.9
  25-foot Walk Time, Change from baseline at Month 24, Median: 0.0
Over the study, higher scores indicate worse disability
  timed 25-foot walk test, walk time: significantly increased
[2]
  MSFC Score, Change from baseline at Month 12, Mean ± SD: 0.06 ± 0.38
  MSFC Score, Change from baseline at Month 24, Mean ± SD: 0.09 ± 0.43
  PASAT3 score - All Patients, % change from baseline at Month 12, Mean ± SD: 0.8 ± 9.9%
  PASAT3 score - All Patients, % change from baseline at Month 12, Median: 0%
  PASAT3 score - All Patients, % change from baseline at Month 24, Mean ± SD: 2.7 ± 10.3%
  PASAT3 score - All Patients, % change from baseline at Month 24, Median: 0%
  PASAT3 score - All Patients, change from baseline at Month 12, Mean ± SD: 0.1 ± 4.5
  PASAT3 score - All Patients, change from baseline at Month 12, Median: 0
  PASAT3 score - All Patients, change from baseline at Month 24, Mean ± SD: 1.1 ± 4.3
  PASAT3 score - All Patients, change from baseline at Month 24, Median: 0
  PASAT3 score - Patients with baseline score <55, % change from baseline at Month 12, Mean ± SD: 4.0 ± 14.0%
  PASAT3 score - Patients with baseline score <55, % change from baseline at Month 12, Median: 3.8%
  PASAT3 score - Patients with baseline score <55, % change from baseline at Month 24, Mean ± SD: 6.9 ± 14.7%
  PASAT3 score - Patients with baseline score <55, % change from baseline at Month 24, Median: 9.1%
  PASAT3 score - Patients with baseline score <55, change from baseline at Month 12, Mean ± SD: 1.6 ± 6.0
  PASAT3 score - Patients with baseline score <55, change from baseline at Month 12, Median: 1.0
  PASAT3 score - Patients with baseline score <55, change from baseline at Month 24, Mean ± SD: 3.0 ± 5.9
  PASAT3 score - Patients with baseline score <55, change from baseline at Month 24, Median: 4.0
[3]
  9-Hole Peg Test, Change from baseline at Month 12, Mean ± SD: −0.1 ± 1.8
  9-Hole Peg Test, Change from baseline at Month 12, Median: −0.4
  9-Hole Peg Test, Change from baseline at Month 24, Mean ± SD: −0.4 ± 1.5
  9-Hole Peg Test, Change from baseline at Month 24, Median: −0.5
[4]
  25-foot Walk Time, Change from baseline at Month 24, Mean ± SD: 0.1 ± 1.1
  25-foot Walk Time, Change from baseline at Month 24, Median: 0.1
